# Results: ChEMBL document CHEMBL1201861, “Genomics of Drug Sensitity in Cancer screening data, Wellcome Trust Sanger Institute”
# Several values for one entry are separate records, joined by “and”; a condition that tells them apart may be missing. Identical values can stand only once. Where a SMILES comes first, the peptide text is derived from it. The star is where a group is joined. Cbz = O=C(OCc1ccccc1)*
# Key:
# Experiment in all cases: cells
# [1] = system: HOP-62; format: functional, cell-based, Homo sapiens;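 note: cell growth inhibition determined with a viability assay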
# [2] = system: RPMI-8866; format: functional, cell-based, Homo sapiens
# [3] = system: CGTH-W-1; format: functional, cell-based, Homo sapiens;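 note: growth inhibition of human CGTH-W-1 cells measured by cell viability assay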
# [4] = system: HCE-4; format: functional, cell-based; conditions: Homo sapiens;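 note: cell viability assay measuring inhibition of growth in the human HCE-4 cell line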
# [5] = system: KNS-42; format: functional, cell-based; conditions: Homo sapiens;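 note: growth inhibition of KNS-42 cells, read out with a cell viability assay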
# [6] = system: LU-134-A; format: functional, cell-based, Homo sapiens
# [7] = system: HH; format: functional, cell-based, Homo sapiens
# [8] = system: BB65-RCC; format: functional, cell-based, Homo sapiens;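 note: growth inhibition of the cell line, measured with a cell viability assay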
# [9] = system: D-263MG; format: functional, cell-based, Homo sapiens
# [10] = system: MZ1-PC; format: functional, cell-based, Homo sapiens;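 note: cell viability assay measuring growth inhibition of human MZ1-PC cells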
# [11] = system: COLO-800; format: functional, cell-based, Homo sapiens;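 note: growth inhibition of COLO-800 cells, read out with a cell viability assay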
# [12] = system: GB-1; format: functional, cell-based, Homo sapiens;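 note: growth of GB-1 cells judged by a viability assay, IC50 marks the concentration inhibiting growth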
# [13] = system: KARPAS-299; format: functional, cell-based, Homo sapiens
# [14] = system: SF-126; format: functional, cell-based, Homo sapiens;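 note: growth inhibition of human SF126 cells, read out with a cell viability assay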
# [15] = system: A101D; format: functional, cell-based, Homo sapiens;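 note: growth inhibition of the cell line, measured with a viability assay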
# [16] = system: 8-MG-BA; format: functional, cell-based, Homo sapiens;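 note: growth inhibition of 8-MG-BA cells, read out with a cell viability assay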
# [17] = system: DMS-114; format: functional, cell-based, Homo sapiens
# [18] = system: KARPAS-45; format: functional, cell-based, Homo sapiens;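 note: inhibition of cell line growth, read out through a viability assay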
# [19] = system: GI-1; format: functional, cell-based, Homo sapiens;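 note: growth inhibition of human GI-1 cells, measured with a cell viability readout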
# [20] = system: MLMA; format: functional, cell-based, Homo sapiens;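 note: growth inhibition of MLMA cells (human), determined through a cell viability readout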
# [21] = system: SF-539; format: functional, cell-based, Homo sapiens;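 note: Read-out is a cell viability assay, with IC50 reflecting inhibition of cell growth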
# [22] = system: LB2518-MEL; format: functional, cell-based; conditions: Homo sapiens;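 note: growth inhibition of human LB2518-MEL cells, measured with a cell viability assay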
# [23] = system: Mo; format: functional, cell-based, Homo sapiens
# [24] = system: MZ7-mel; format: functional, cell-based, Homo sapiens;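 note: growth inhibition of human MZ7-mel cells, measured by a cell viability assay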
# [25] = system: MFM-223; format: functional, cell-based, Homo sapiens
# [26] = system: NCI-H1355; format: functional, cell-based, Homo sapiens;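 note: growth inhibition of human NCI-H1355 cells, read out by a cell viability assay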
# [27] = system: TGW; format: functional, cell-based, Homo sapiens;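 note: growth inhibition of human TGW cells, read out with a cell viability assay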
# [28] = system: GOTO; format: functional, cell-based, Homo sapiens;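 note: growth inhibition of GOTO cells, read out by a cell viability assay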
# [29] = system: SCC-15; format: functional, cell-based, Homo sapiens;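 note: growth inhibition of SCC-15 cells, read out with a cell viability assay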
# [30] = system: LS-123; format: functional, cell-based, Homo sapiens
# [31] = system: NTERA-2-cl-D1; format: functional, cell-based, Homo sapiens;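 note: inhibition of cell growth, measured with a cell viability assay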
# [32] = system: IA-LM; format: functional, cell-based; conditions: Homo sapiens;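 note: cell viability assay measuring growth inhibition of human IA-LM cells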
# [33] = system: NCI-H209; format: functional, cell-based, Homo sapiens;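 note: growth inhibition of human NCI-H209 cells, measured by a cell viability assay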
# [34] = system: SF-268; format: functional, cell-based, Homo sapiens;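 note: growth inhibition of SF-268 cells determined with a cell viability assay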
# [35] = system: ES6; format: functional, cell-based; conditions: Homo sapiens;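 note: growth inhibition of human ES6 cells, read out with a cell viability assay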
# [36] = system: C2BBe1; format: functional, cell-based, Homo sapiens;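 note: growth inhibition of C2BBe1 cells, read out through a viability assay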
# [37] = system: LOX IMVI; format: functional, cell-based, Homo sapiens
# [38] = system: SNB-75; format: functional, cell-based, Homo sapiens;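 note: cell viability assay measuring growth inhibition of human SNB-75 cells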
# [39] = system: HCC2157; format: functional, cell-based, Homo sapiens;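 note: growth inhibition of the cancer cell line, read out as cell viability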
# [40] = system: ETK-1; format: functional, cell-based, Homo sapiens;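 note: growth inhibition of human ETK-1 cells, read out with a cell viability assay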
# [41] = system: SK-MEL-1; format: functional, cell-based, Homo sapiens;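 note: growth inhibition of human SK-MEL-1 cells, read out by a cell viability assay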
# [42] = system: TE-12; format: functional, cell-based, Homo sapiens;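 note: growth inhibition of TE-12 cells, read out by a cell viability assay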
# [43] = system: ES8; format: functional, cell-based, Homo sapiens;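 note: growth inhibition of human ES8 cells, read out with a cell viability assay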
# [44] = system: Ramos-2G6-4C10; format: functional, cell-based, Homo sapiens;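 note: growth inhibition of the cell line, measured by a cell viability read-out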
# [45] = system: KS-1; format: functional, cell-based; conditions: Homo sapiens;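 note: growth inhibition of KS-1 cells, read out with a cell viability assay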
# [46] = system: VA-ES-BJ; format: functional, cell-based, Homo sapiens;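 note: growth inhibition of the VA-ES-BJ cell line, read out by a cell viability assay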
# [47] = system: ES1; format: functional, cell-based, Homo sapiens;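 note: growth inhibition of ES1 cells, read out with a cell viability assay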
# [48] = system: A498; format: functional, cell-based, Homo sapiens;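 note: growth inhibition of human A498 cells, read out with a cell viability assay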
# [49] = system: TGBC24TKB; format: functional, cell-based; conditions: Homo sapiens;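 note: growth inhibition of human TGBC24TKB cells, read out with a cell viability assay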
# [50] = system: LNCaP-Clone-FGC; format: functional, cell-based, Homo sapiens
smiles,measurement,setting,value
Cc1ccc(C(=O)Nc2ccc(CN3CCN(C)CC3)c(C(F)(F)F)c2)cc1C#Cc1cnc2cccnn12 [PONATINIB],IC50,"[1]; Homo sapiens, HOP-62",361 nM
same,IC50,"[2]; Homo sapiens, RPMI-8866",> 512 nM
same,IC50,"[3]; Homo sapiens, CGTH-W-1",1.69 nM
same,IC50,[4],> 512 nM
same,IC50,[5],> 512 nM
same,IC50,"[6]; Homo sapiens, LU-134-A",> 512 nM
same,IC50,"[7]; Homo sapiens, HH",> 512 nM
same,IC50,"[8]; Homo sapiens, BB65-RCC",> 512 nM
same,IC50,"[9]; Homo sapiens, D-263MG",> 512 nM
same,IC50,"[10]; Homo sapiens, MZ1-PC",113 nM
same,IC50,"[11]; Homo sapiens, COLO-800",> 512 nM
same,IC50,"[12]; Homo sapiens, GB-1",125 nM
same,IC50,"[13]; Homo sapiens, KARPAS-299",> 512 nM
same,IC50,"[14]; Homo sapiens, SF-126",171 nM
same,IC50,"[15]; Homo sapiens, A101D",> 512 nM
same,IC50,"[16]; Homo sapiens, 8-MG-BA",> 512 nM
same,IC50,"[17]; Homo sapiens, DMS-114",> 512 nM
same,IC50,"[18]; Homo sapiens, KARPAS-45",489 nM
same,IC50,"[19]; Homo sapiens, GI-1",> 512 nM
same,IC50,"[20]; Homo sapiens, MLMA",90.6 nM
same,IC50,"[21]; Homo sapiens, SF-539",> 512 nM
same,IC50,[22],> 512 nM
same,IC50,"[23]; Homo sapiens, Mo",> 512 nM
same,IC50,"[24]; Homo sapiens, MZ7-mel",> 512 nM
same,IC50,"[25]; Homo sapiens, MFM-223",> 512 nM
same,IC50,"[26]; Homo sapiens, NCI-H1355",> 512 nM
same,IC50,"[27]; Homo sapiens, TGW",> 512 nM
same,IC50,"[28]; Homo sapiens, GOTO",> 512 nM
same,IC50,"[29]; Homo sapiens, SCC-15",> 512 nM
same,IC50,"[30]; Homo sapiens, LS-123",> 512 nM
same,IC50,"[31]; Homo sapiens, NTERA-2-cl-D1",> 512 nM
same,IC50,[32],> 512 nM
same,IC50,"[33]; Homo sapiens, NCI-H209",> 512 nM
same,IC50,"[34]; Homo sapiens, SF-268",449 nM
same,IC50,[35],> 512 nM
same,IC50,"[36]; Homo sapiens, C2BBe1",> 512 nM
same,IC50,"[37]; Homo sapiens, LOX IMVI",> 512 nM
same,IC50,"[38]; Homo sapiens, SNB-75",> 512 nM
same,IC50,"[39]; Homo sapiens, HCC2157",> 512 nM
same,IC50,"[40]; Homo sapiens, ETK-1",> 512 nM
same,IC50,"[41]; Homo sapiens, SK-MEL-1",> 512 nM
same,IC50,"[42]; Homo sapiens, TE-12",> 512 nM
same,IC50,"[43]; Homo sapiens, ES8",> 512 nM
same,IC50,"[44]; Homo sapiens, Ramos-2G6-4C10",> 512 nM
same,IC50,[45],> 512 nM
same,IC50,"[46]; Homo sapiens, VA-ES-BJ",> 512 nM
same,IC50,"[47]; Homo sapiens, ES1",> 512 nM
same,IC50,"[48]; Homo sapiens, A498",> 512 nM
same,IC50,[49],> 512 nM
same,IC50,"[50]; Homo sapiens, LNCaP-Clone-FGC",> 512 nM
CC(C)C[C@@H](C=O)NC(=O)[C@H](CC(C)C)NC(=O)[C@H](CC(C)C)NC(=O)OCc1ccccc1 [MG-132] (Cbz-Leu-Leu-Leu-aldehyde),IC50,[1]; hop-62,109 nM and > 1000 nM
same,IC50,"[2]; Homo sapiens, RPMI-8866",> 1000 nM
same,IC50,[2]; rpmi-8866,> 1000 nM
same,IC50,[3]; cgth-w-1,> 1000 nM
same,IC50,[4],> 1000 nM
same,IC50,"[6]; Homo sapiens, LU-134-A",> 1000 nM
same,IC50,[6]; lu-134-a,> 1000 nM
same,IC50,"[7]; Homo sapiens, HH",329 nM
same,IC50,[7]; hh,571 nM
same,IC50,[8]; bb65-rcc,568 nM and > 1000 nM
same,IC50,[9]; d-263mg,160 nM and > 1000 nM
same,IC50,"[10]; Homo sapiens, MZ1-PC",> 1000 nM
same,IC50,[10]; mz1-pc,> 1000 nM
same,IC50,[11]; colo-800,> 1000 nM
same,IC50,[12]; gb-1,721 nM and > 1000 nM
same,IC50,[13]; karpas-299,> 1000 nM
same,IC50,[14]; sf-126,990 nM and > 1000 nM
same,IC50,[15]; a101d,32.8 nM and 301 nM
same,IC50,[16]; 8-mg-ba,398 nM and > 1000 nM
same,IC50,[17]; dms-114,> 1000 nM
same,IC50,[18]; karpas-45,> 1000 nM
same,IC50,[19]; gi-1,> 1000 nM
same,IC50,[20]; mlma,> 1000 nM
same,IC50,[21]; sf-539,> 1000 nM
same,IC50,[23]; mo,518 nM and > 1000 nM
same,IC50,[24]; mz7-mel,264 nM and > 1000 nM
same,IC50,[25]; mfm-223,> 1000 nM
same,IC50,[26]; nci-h1355,686 nM and > 1000 nM
same,IC50,[27]; tgw,> 1000 nM
same,IC50,"[28]; Homo sapiens, GOTO",> 1000 nM
same,IC50,[28]; goto,> 1000 nM
same,IC50,[29]; scc-15,> 1000 nM
same,IC50,[30]; ls-123,> 1000 nM
same,IC50,[31]; ntera-2-cl-d1,57.7 nM and 426 nM
same,IC50,[32],> 1000 nM
same,IC50,[33]; nci-h209,> 1000 nM
same,IC50,[34]; sf-268,656 nM and > 1000 nM
same,IC50,[36]; c2bbe1,279 nM and > 1000 nM
same,IC50,"[37]; Homo sapiens, LOX IMVI",> 1000 nM
same,IC50,[37]; lox imvi,> 1000 nM
same,IC50,[38]; snb-75,> 1000 nM
same,IC50,[39]; hcc2157,> 1000 nM
same,IC50,"[40]; Homo sapiens, ETK-1",> 1000 nM
same,IC50,[40]; etk-1,> 1000 nM
same,IC50,"[41]; Homo sapiens, SK-MEL-1",> 1000 nM
same,IC50,[41]; sk-mel-1,> 1000 nM
same,IC50,"[42]; Homo sapiens, TE-12",> 1000 nM
same,IC50,[42]; te-12,> 1000 nM
same,IC50,[43]; es8,248 nM and > 1000 nM
same,IC50,"[44]; Homo sapiens, Ramos-2G6-4C10",> 1000 nM
same,IC50,[44]; ramos-2g6-4c10,> 1000 nM
same,IC50,[46]; va-es-bj,223 nM and > 1000 nM
same,IC50,[47]; es1,> 1000 nM
same,IC50,"[48]; Homo sapiens, A498",> 1000 nM
same,IC50,[48]; a498,> 1000 nM
same,IC50,[49],> 1000 nM
same,IC50,"[50]; Homo sapiens, LNCaP-Clone-FGC",> 1000 nM
same,IC50,[50]; lncap-clone-fgc,> 1000 nM
